Assay [1] addresses DNA topoisomerase (Yersinia pestis, UniProt A0A2S9PM60). The experiment in a line: Y. pestis Topo-I inhibitors, cleavage product readout, dose response, biochemical, cherry-pick (AID 588525).
Assay [2] concerns the target T1, Streptokinase A (Streptococcus pyogenes serotype M1, UniProt P10520).
T1 sequence (P10520 whole entry): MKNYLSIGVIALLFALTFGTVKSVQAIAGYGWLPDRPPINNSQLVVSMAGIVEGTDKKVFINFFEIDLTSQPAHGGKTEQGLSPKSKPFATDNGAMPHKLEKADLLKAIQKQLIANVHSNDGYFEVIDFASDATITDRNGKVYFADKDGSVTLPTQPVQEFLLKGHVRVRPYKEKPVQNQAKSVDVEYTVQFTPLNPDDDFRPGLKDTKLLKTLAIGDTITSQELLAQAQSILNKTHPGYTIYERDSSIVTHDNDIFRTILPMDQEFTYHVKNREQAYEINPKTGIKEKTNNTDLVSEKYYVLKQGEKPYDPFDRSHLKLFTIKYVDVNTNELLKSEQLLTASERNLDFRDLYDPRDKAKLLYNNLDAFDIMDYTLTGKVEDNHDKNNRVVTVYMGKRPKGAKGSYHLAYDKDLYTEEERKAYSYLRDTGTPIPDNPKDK
The assay is described as follows: S. pyogenes streptokinase expression inhibitors, potency, dose response, plasminogen activation absorbance, OD405 (AID 1914).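 Also: secreted streptokinase activity via plasminogen activation per viability signal from cell pellet.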 It is filed as functional, Streptococcus pyogenes M1 GAS.

The test system of assay [3] is Streptococcus sp. 'group A'. The assay is described as follows: growth inhibition of control SK(-) GAS strain, dose response, counter-screen for streptokinase expression inhibitor project, luminescence, kanamycin, BacTiterGlo, confirmation (AID 1900). It is filed as functional, organism-based.
The target in assay [4] is NS3 (Hepatitis C virus, UniProt A3EZJ3). The experiment in a line: PubChem AID 2173. Also on record: species or system Hepacivirus hominis.
Assay [5] concerns Streptococcus. The assay is described as follows: Group A Streptococcus viability loss, dose response, counter-screen for streptokinase expression inhibitor project, luminescence, BacTiterGlo (AID 1915).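 Also: potency for reduction of bacterial viability or growth.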 It is filed as functional, organism-based.
For assay [6], the target named is T2, Replicative DNA helicase DnaB (Mycobacterium tuberculosis, UniProt P9WMR3).
T2 sequence (P9WMR3 whole entry): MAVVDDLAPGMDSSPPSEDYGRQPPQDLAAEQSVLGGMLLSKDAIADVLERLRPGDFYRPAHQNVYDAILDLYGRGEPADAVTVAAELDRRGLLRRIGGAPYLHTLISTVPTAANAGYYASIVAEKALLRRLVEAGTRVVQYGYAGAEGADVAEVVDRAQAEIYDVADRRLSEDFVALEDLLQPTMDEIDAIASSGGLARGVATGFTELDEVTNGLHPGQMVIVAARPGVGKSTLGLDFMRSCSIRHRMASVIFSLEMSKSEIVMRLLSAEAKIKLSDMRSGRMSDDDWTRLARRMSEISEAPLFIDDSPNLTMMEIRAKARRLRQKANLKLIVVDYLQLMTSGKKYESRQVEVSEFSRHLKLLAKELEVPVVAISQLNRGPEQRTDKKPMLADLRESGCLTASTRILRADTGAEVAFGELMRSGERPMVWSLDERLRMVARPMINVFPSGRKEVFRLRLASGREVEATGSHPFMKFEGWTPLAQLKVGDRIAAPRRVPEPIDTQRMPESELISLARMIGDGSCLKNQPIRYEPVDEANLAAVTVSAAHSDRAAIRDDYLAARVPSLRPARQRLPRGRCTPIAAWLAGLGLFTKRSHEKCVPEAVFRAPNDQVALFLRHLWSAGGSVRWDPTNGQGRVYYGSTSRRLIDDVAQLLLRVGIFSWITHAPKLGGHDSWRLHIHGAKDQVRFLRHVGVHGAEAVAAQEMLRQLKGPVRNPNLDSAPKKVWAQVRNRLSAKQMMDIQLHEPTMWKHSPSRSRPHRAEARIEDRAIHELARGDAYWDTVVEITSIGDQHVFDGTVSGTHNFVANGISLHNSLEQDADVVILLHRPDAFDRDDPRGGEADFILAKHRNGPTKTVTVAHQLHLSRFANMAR
The experiment in a line: DnaB intein splicing inhibitors, dose response, biochemical, cell-free fluorescence (AID 449749). It is filed as functional.

Assay [7] has as its target Induced myeloid leukemia cell differentiation protein Mcl-1 (Homo sapiens, UniProt Q07820). It is filed as functional.
The target in assay [8] is Glucose-6-phosphate 1-dehydrogenase (Homo sapiens, UniProt P11413). The experiment in a line: human G6PD enzyme inhibitors, dose response, selectivity assay for P. falciparum G6PD inhibitor project, biochemical, fluorescence (AID 504792). It is filed as functional.
Assay [9] can be described thus: enhancers of respiration in Yfh1-depleted yeast, dose response, Friedreich's ataxia, plus single-dose screen (AID 1465).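 Also: yeast depleted of Yfh1p frataxin homolog grown on glycerol needing respiration; WST-1 tetrazolium dye reduction as measure of cellular dehydrogenase metabolic activity.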 It is filed as functional.
Assay [10] is described as follows: Luminescence Cell-Based Dose Response HTS to Identify Activators of Luciferase Translation or Activity in H4 […] Cells. [Related pubchem assays: 1829 (Project Summary), 1814 (Primary HTS)]. It is filed as functional.
Assay [11] concerns the target T3, Polyadenylate-binding protein 1 (Homo sapiens, UniProt P11940). The experiment in a line: PABP1 MLLE–PAM2 interaction inhibitors, dose response, miRNA deadenylation inhibitor project, biochemical, fluorescence polarization, Cy5-PAM2 peptide, secondary (AID 602260). It is filed as functional. As to conditions: read-out: IC50_Mean.
The target in assay [12] is Genome polyprotein (dengue virus type 2, UniProt P29990). The experiment in a line: Dengue-2 NS5 methyltransferase inhibitors, primary screen, biochemical, confirmation dose response (AID 588689). The class given is functional.
Assay [13] addresses T4, Aminopeptidase N (Plasmodium falciparum FcB1/Columbia, UniProt O96935).
T4 sequence (O96935 whole entry): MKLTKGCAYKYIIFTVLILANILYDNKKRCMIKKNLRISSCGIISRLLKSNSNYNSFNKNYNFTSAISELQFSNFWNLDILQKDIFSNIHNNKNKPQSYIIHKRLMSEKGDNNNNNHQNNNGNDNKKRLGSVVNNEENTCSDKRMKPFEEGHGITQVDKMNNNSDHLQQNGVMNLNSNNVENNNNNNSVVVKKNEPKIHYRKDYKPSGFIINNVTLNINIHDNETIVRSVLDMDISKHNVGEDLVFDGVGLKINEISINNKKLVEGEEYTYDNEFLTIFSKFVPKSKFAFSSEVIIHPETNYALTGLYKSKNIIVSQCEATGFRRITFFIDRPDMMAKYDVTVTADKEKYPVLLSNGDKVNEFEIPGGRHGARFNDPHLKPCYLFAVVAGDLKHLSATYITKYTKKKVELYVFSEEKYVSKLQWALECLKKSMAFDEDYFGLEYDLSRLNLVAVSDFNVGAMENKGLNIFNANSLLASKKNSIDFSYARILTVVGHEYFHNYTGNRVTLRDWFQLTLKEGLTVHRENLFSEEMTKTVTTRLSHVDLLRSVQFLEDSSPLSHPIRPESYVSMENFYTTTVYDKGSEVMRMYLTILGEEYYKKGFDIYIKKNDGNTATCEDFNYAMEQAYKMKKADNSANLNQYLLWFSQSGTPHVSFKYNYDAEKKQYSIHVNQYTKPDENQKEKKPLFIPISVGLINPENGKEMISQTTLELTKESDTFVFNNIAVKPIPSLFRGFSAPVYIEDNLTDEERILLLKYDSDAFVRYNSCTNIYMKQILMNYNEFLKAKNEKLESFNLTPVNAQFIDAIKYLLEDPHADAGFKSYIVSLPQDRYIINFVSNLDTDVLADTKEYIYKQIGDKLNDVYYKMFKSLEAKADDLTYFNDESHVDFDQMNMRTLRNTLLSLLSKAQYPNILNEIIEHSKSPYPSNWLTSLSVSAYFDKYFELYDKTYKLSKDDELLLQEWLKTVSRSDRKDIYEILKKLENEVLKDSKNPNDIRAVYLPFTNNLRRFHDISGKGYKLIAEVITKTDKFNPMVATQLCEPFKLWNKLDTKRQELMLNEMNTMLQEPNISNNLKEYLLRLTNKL
The assay is described as follows: P. falciparum M1AAP inhibitors, biochemical, fluorogenic H-Leu-NHMec substrate, 1536-well (AID 1445). Set-up: species or system Plasmodium falciparum 3D7, 3D7.

Assay [14] deals with Vero. The assay is described as follows: Vero cell cytotoxicity, cytotoxicity control for flavivirus capping enzyme inhibitors (AID 588742). It is filed as functional. As to conditions: Chlorocebus sabaeus.
In assay [15] the test system is H4. The assay is described as follows: Luminescence Cell-Based Dose Response HTS to Identify Activators of 5'UTR Stem-Loop Driven Prion Protein mRNA Translation in H4 Neuroglioblastoma Cells. [Related pubchem assays: 1829 (Project Summary), 1814 (Primary HTS)]. It is filed as functional. The following applies: Homo sapiens.
In assay [16] the target is T3, Polyadenylate-binding protein 1. The experiment in a line: PABP1 MLLE–PAM2 binding inhibitor potency, dose response, biochemical, fluorescence polarization, FITC-PAM2 peptide (AID 602259). The following applies: read-out: IC50_Mean. It is filed as functional.
Assay [17] in a line: Luminescence Cell-Based Dose Confirmation HTS to Identify Activators of 5'UTR Stem-Loop Driven Alpha-Synuclein mRNA Translation in H4 Neuroglioblastoma Cells. [Related pubchem assays: 1829 (Project Summary), 1814 (Primary HTS)]. The class given is functional.
Assay [18] concerns the target T5, Protein RecA (Mycobacterium tuberculosis, UniProt P9WHJ3).
T5 sequence (P9WHJ3 whole entry): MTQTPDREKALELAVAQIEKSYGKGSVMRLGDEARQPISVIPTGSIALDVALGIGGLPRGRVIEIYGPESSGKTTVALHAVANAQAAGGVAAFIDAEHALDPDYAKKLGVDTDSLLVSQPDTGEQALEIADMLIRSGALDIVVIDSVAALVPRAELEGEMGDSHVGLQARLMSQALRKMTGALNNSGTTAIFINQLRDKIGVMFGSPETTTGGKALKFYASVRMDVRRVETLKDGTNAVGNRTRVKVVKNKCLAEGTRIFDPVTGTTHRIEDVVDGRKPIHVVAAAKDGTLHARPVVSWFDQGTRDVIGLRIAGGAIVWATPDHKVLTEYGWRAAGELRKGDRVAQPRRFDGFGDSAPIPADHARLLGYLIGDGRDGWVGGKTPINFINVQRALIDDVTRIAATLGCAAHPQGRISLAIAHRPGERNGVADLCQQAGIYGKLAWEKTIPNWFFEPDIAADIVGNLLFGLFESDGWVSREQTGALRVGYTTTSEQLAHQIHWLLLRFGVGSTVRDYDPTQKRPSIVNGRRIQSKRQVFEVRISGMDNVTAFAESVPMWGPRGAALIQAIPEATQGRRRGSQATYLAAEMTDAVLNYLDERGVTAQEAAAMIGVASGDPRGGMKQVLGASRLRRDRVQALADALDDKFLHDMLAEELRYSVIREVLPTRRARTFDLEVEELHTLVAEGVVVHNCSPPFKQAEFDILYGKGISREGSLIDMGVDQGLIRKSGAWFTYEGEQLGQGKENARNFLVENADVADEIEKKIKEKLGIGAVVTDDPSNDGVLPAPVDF
The experiment in a line: Fluorescence Cell-Free Homogeneous Dose Retest to Identify Inhibitors of RecA-Intein Splicing Activity. [Related pubchem assays (depositor defined):AID2097, AID2223, AID489010, AID492950]. It is filed as functional.

The results in this text go back to ChEMBL document CHEMBL1201862, “PubChem BioAssay data set” (2004).

Activity calls are given as the source filed them. Where only a bound is given, the exact number is not on record here.

T3 sequence (P11940 whole entry): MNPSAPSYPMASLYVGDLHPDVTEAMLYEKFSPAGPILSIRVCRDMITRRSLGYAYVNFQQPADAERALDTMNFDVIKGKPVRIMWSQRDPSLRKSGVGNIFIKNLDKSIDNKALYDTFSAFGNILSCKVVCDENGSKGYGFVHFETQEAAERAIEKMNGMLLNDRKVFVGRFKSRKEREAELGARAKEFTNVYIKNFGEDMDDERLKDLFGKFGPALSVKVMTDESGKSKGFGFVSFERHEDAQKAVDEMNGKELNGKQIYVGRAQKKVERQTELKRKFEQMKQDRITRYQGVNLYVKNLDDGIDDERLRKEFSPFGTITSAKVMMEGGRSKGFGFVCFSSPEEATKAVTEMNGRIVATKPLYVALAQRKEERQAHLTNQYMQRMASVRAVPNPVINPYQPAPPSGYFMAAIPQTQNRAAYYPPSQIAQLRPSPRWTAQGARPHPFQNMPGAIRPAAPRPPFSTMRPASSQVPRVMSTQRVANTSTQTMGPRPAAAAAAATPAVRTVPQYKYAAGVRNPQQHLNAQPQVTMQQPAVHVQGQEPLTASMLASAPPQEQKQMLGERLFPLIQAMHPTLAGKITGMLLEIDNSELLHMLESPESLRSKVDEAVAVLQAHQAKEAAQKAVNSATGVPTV
Sequence of Induced myeloid leukemia cell differentiation protein Mcl-1 (Q07820 whole entry): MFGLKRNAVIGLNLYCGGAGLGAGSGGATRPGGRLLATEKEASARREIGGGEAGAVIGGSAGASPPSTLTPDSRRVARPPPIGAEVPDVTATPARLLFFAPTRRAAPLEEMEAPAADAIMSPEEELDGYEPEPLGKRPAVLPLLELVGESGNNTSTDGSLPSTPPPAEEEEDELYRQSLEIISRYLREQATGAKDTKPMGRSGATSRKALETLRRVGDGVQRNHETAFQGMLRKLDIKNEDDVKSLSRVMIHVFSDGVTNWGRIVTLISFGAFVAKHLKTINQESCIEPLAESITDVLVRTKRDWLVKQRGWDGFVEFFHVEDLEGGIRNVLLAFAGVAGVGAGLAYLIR
Sequence of Glucose-6-phosphate 1-dehydrogenase (P11413 whole entry): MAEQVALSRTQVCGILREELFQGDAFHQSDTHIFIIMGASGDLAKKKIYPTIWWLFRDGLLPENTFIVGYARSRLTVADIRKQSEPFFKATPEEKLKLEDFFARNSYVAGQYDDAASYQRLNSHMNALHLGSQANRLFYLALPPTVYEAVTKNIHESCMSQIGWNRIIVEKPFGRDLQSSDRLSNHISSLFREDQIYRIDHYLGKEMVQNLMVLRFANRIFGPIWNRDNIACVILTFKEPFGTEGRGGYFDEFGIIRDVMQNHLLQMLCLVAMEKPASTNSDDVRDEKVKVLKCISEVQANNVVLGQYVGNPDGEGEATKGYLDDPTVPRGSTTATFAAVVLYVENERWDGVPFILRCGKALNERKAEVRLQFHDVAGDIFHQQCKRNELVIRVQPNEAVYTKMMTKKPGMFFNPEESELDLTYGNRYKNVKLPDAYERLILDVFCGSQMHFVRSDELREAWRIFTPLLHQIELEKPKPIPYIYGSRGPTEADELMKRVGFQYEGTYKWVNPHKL
Sequence of Genome polyprotein (P29990 2492-3391 limits assumed): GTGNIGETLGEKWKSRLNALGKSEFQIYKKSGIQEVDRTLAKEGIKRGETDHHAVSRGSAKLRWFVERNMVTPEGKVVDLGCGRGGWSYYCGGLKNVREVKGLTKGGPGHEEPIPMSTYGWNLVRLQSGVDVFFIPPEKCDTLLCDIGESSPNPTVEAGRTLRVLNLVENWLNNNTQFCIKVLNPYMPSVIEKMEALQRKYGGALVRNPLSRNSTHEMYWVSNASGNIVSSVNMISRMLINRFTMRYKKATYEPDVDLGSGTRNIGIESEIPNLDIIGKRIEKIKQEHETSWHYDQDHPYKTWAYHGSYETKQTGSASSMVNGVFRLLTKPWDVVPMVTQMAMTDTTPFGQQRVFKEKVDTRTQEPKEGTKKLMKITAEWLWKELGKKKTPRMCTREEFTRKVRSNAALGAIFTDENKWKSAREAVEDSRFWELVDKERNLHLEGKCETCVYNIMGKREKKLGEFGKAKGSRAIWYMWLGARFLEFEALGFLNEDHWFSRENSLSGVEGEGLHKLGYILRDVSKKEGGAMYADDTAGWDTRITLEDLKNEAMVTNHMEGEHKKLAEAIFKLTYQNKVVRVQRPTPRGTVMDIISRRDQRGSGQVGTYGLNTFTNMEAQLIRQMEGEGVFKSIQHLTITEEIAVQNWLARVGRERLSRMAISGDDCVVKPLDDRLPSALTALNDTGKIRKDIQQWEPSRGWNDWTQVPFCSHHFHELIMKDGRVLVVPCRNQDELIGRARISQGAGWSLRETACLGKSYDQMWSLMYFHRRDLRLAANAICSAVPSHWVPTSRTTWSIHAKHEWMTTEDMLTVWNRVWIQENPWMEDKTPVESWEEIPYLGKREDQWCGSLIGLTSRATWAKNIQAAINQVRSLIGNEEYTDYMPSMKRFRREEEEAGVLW
Sequence of DNA topoisomerase (A0A2S9PM60 whole entry): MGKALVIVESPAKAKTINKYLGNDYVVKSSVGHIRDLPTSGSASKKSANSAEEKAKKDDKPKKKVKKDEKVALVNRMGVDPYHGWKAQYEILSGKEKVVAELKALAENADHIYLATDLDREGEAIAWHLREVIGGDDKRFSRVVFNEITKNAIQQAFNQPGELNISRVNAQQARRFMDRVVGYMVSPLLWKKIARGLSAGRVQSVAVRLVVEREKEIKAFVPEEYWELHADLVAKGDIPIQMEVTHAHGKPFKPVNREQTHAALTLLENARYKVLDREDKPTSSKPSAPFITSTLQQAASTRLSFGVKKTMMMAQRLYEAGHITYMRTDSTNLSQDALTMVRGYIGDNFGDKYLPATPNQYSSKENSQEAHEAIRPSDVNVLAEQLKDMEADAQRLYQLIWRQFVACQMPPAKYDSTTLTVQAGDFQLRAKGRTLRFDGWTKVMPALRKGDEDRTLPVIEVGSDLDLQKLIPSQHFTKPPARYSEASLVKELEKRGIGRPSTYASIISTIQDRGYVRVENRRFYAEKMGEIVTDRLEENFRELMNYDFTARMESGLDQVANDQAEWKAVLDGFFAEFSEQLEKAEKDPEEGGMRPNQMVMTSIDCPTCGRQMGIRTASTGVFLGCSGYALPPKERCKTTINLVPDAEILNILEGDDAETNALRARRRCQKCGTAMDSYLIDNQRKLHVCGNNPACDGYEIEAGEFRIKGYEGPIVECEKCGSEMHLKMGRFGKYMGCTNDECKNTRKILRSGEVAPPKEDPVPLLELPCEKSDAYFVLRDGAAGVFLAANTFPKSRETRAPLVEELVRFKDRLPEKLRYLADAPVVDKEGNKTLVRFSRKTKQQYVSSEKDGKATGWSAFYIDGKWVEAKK
Sequence of NS3 (A3EZJ3 whole entry): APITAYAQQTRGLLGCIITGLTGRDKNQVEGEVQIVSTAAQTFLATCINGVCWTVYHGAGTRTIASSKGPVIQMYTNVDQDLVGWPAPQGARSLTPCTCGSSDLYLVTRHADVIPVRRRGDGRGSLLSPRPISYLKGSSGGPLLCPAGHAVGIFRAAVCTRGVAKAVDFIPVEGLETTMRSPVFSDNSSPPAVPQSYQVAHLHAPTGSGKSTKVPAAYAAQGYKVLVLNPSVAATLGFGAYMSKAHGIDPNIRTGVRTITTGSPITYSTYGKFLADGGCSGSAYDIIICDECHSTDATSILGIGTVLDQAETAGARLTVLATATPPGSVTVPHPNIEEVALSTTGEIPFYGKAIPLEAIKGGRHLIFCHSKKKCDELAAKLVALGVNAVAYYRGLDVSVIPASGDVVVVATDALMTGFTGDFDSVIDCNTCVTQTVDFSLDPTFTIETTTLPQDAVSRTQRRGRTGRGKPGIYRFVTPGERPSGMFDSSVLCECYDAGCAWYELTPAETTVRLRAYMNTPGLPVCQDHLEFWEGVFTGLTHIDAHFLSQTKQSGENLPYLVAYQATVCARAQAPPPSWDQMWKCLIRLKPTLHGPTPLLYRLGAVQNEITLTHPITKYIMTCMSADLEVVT

On to `Cc1ccc(C2C(C(=O)c3cc4ccccc4o3)=C(O)C(=O)N2c2cc(C)on2)cc1` (stereo not drawn), for which the AC50 in assay [1] was 8.86 µM (active). The values for the concentration giving a half-maximal response (EC50) in assay [2], in [3] and in assay [5] were 6.3 µM (active), 2.28 µM (active) and 6.76 µM (active), respectively. The IC50 in [4] is 2.49 µM (active).
In the case of `Cc1ccc(S(=O)(=O)/N=C2/C=C(C3C(=O)CC(C)(C)CC3=O)C(=O)c3ccccc32)cc1`, the concentration at half-maximal activity (AC50) in assay [6] is 113 µM (active). Moreover, the IC50 in assay [7] was 2.13 µM (active); in assay [8], > 80 µM (inactive); in assay [11], > 66 µM (inactive); in assay [12] it was 10.1 µM (active); in assay [13], 34.5 µM (active); in assay [16], > 66 µM (inactive). Further, the EC50 was > 100 µM (active) in [9]; 42.1 µM (active) in assay [10]; 46.4 µM (active) in assay [15]; 8.21 µM (active) in assay [17]; 3.22 µM (active) in assay [18]. Moreover, the CC50 in assay [14] was > 40 µM (active).
